Patent US10519177B2, “Heterocyclic compounds and uses thereof” (Plexxikon Inc., priority 2013, dated 2019)
Like-named read-outs stand apart in the source and are kept apart here.

Legend:
BRD4-BD12 (1-477) = BRD4-BD12 (1-477) (Homo sapiens (Human), UniProt O60885); test: Alphascreen binding assay BRD4-BD12; details: BRD4(1 2) H4; read-out: Biochemical activity (IC50 μM) BRD4(1 2) H4
Procedure: Binding of compounds of formula (I) with bromodomain 2, 3 4 was assessed using Alphascreen binding assay. The inhibition of the interaction between bromodomain and its acetylated target protein (Filippakopoulos P et al. 2012) was measured quantitatively using recombinant BRD proteins, an acetylated Histone 4 peptide and AlphaScreen™ technology. In absence of inhibition the BRD protein bound to AlphaScreen™ nickel chelate acceptor beads can interact with the acetylated Histone 4 peptide which is immobilized by the AlphaScreen™ Streptavidin coated beads. This interaction brings donor and acceptor beads in proximity. The close proximity allows the singlet oxygen produced by laser excitation of the donor beads to reach the acceptor beads and generate a luminescence signal.
Recombinant human bromodomains containing the N-terminal bromodomain (BRD2-BD1 (71-194), BRD3-BD1 (24-144) and BRD4-BD1 (44-164)) or dual bromodomains (BRD4-BD12 (1-477), BRD4-BD12 (1-472)) were prepared and purified as described in protein expression and purification session. The peptide is human Histone H41-21K5AcK8AcK12AcK16Ac-Biotin (Anaspec CA, USA).
Protocol for BRD2, BRD3 and BRD4 assay: All components are prepared in buffer composed of 50 mM HEPES pH 7.5, 100 mM NaCl, 0.01% bovine serum albumin (“BSA”), 0.01% Triton X-100, 2 mM dithiothreitol (“DTT”). 7 μL of Bromodomain protein and 7 μL of peptide are added to wells containing 1 μL of various concentrations of test compounds of formula (I) or DMSO vehicle in an Alphaplate (PerkinElmer GA, USA) and incubated for 1 hour at room temperature. 4 μL donor and acceptor bead mixture is then added with final concentrations of 7.5 μg/ml. 30 minutes after bead addition, Alpha signal is read on the Envision spectrometer (λEx 680 nm, λEm 520-620 nm). Final concentrations of bromodomain proteins and peptide are as shown below.
All data was normalized to the mean of 16 high and 16 low control wells on each plate. A four parameter curve fit of the following formula was then applied: Y=a+(b−a)/(1+(x/c)^d) Where ‘a’ is the minimum, ‘b’ is the maximum, ‘c’ is the pIC50 and ‘d’ is the Hill slope. Protein Expression and Purification
Recombinant human bromodomains containing the N-terminal bromodomain (BRD2-BD1 (71-194), BRD3-BD1 (24-144) and BRD4-BD1 (44-164)) or dual bromodomains (BRD4-BD12 (1-477), BRD4-BD12 (1-472)) were expressed in E. coli cells (in a modified pET vector) with an N-terminal six-His tag and purified using a combination of both IMAC (Ni-affinity) and size exclusion chromatography steps.
Recombinant BRD proteins were expressed using the E. coli strain BL21-CodonPlus (DE3) (Agilent Technologies CA, USA). Cells were grown in Terrific Broth (TB) media to an OD600 of 1.2 at 37° C. at which temperature was reduced to 25° C., protein was induced with 1.0 mM ispropyl-β-D-thiogalactopyranoside (“IPTG”) for 12-18 hours and harvested by centrifugation at 8000×g for 20 minutes. Cells were re-suspended in 0.1M K2PO4 pH 8.0, 250 mM NaCl, 10% Glycerol, 0.75% NP-40, 25 mM Imidazole, 5 mM beta-mercaptoethanol (“BME”) with 0.2 mg/ml Lysosyme, 2.0 mM phenylmethanesulfonyl fluoride (“PMSF”), 25 μg/ml DNAse I, incubated on ice for 30 minutes and lyzed with a cell disruptor (MicroFluidics MA, USA). The lysate was clarified by centrifugation at 20,000×g for 2 hours. The protein was captured with Ni-NTA resin (Life Technologies, USA). Contaminating proteins were washed off with 25 mM Tris-HCl pH 8.3, 250 mM NaCl, 12% Glycerol and 50 mM Imidazole. Following 3× wash steps, protein was eluted step wise using a 50 mM HEPES pH 7.5, 500 mM NaCl and 400 mM Imidazole. The protein was further purified using Gel Filtration column 26/600 Superdex 200 (GE Biosciences NJ, USA) in 50 mM HEPES pH 7.5, 250 mM NaCl. The protein was aliquoted and flash-frozen in liquid Nitrogen.

MV-4-11 cells = test: Oncology cell growth assay MV-4-11 (CellTiter Glo); format: cell-based; details: Homo sapiens, MV4-11, 72 h, read-out: Cell activity (IC50 μM) MV-4-11 3d-Growth
Description: Published bromodomain inhibitors JQ1 and iBET 151 have shown activity in variety of cancer cells such leukemia and lymphoma, multiple myeloma cells, NUT midline carcinoma and glioblastoma cells (Dawson M A et al. 2011; Delmore J E 2011; Chen Z et al. 2013; Filippakopoulos P et al. 2010; Mertz J A et al. 2011; Ott C J et al. 2012). In this study, we test compounds in different cancer cell lines. MV-4-11 and MOLM-13 are AML cell lines harboring a MLL-AF4 and MLL-AF9 translocation, respectively. MM.1S is a multiple myeloma cell line. SK-N-AS, IMR-32 and SK-N-BE(2) are neuroblastoma cell lines. IMR-32 and SK-N-BE(2) cell lines harbor MYCN amplifications.
MV-4-11, MM.1S, IMR-32, SK-N-AS and SK-N-BE(2) were obtained from ATCC (IL, USA) and MOLM-13 were purchased from DSMZ (Braunschweig, German). Cells are cultured as recommended by their sources. For growth inhibition studies 3000 cells are seeded in wells of a 96-well plate in 75 μL of culture media. After several hours, growth media containing compounds of formula (I) are added to the wells. Compound at a maximal concentration of 5 mM was serially diluted 1:3 for a total of 8 point titration with DMSO as a control. A 1 μL aliquot of each dilution point is added to 249 μL growth media and 75 μL is added to each well containing cells, providing 10 μM compound at the maximum concentration point. The final concentration of DMSO in all wells is 0.2%. Cells are incubated for 72 hours, and 25 μL of CellTiter Glo Reagent (Promega GA, USA) is added to each well. Plates are shaken for approximately 10 minutes and chemiluminescent signal is read on Tecan microplate reader. The measured luminescence correlates directly with cell number.
All data is normalized to the mean of eight DMSO high control wells on each plate. A four parameter curve fit of the following formula was then applied: Y=a+(b−a)/(1+(x/c)^d) Where ‘a’ is the minimum, ‘b’ is the maximum, ‘c’ is the pIC50 and ‘d’ is the Hill slope. […] Myc Reporter Assay

bromodomain = test: at least one of the bromodomain cell assays of Example 57; format: cell-based; details: at least one of the bromodomain cell assays described in Example 57; read-out: IC50 in at least one of the bromodomain cell assays

With `CNC(=O)c1ccc(-c2cn(CC3(F)CCC(F)(F)CC3)c3cc(-c4c(C)noc4C)cnc23)cn1` [P-0380, 5-[6-(3,5-dimethylisoxazol-4-yl)-1-[(1,4,4-trifluorocyclohexyl)methyl]pyrrolo[3,2-b]pyridin-3-yl]-N-methyl-pyridine-2-carboxamide] the IC50 (BRD4-BD12 (1-477)) was less than 1 µM and the IC50 (MV-4-11 cells) was less than 1 µM.

In the case of `Cc1noc(C)c1-c1cnc2c(-c3ccccc3C(=O)O)cn(CC3CCC(F)(F)CC3)c2c1` [P-0398, 2-[1-[(4,4-difluorocyclohexyl)methyl]-6-(3,5-dimethylisoxazol-4-yl)pyrrolo[3,2-b]pyridin-3-yl]benzoic acid], the IC50 (BRD4-BD12 (1-477)) is reported as less than 1 µM and the IC50 (MV-4-11 cells) is reported as less than 1 µM.

In the case of `[2H]c1c([2H])c([2H])c(C([2H])(n2cc(-c3ccc(C(=O)OC)cc3)c3ncc(-c4c(C)noc4C)cc32)C([2H])([2H])[2H])c([2H])c1[2H]` (stereo not shown) [P-0605, methyl 4-[6-(3,5-dimethylisoxazol-4-yl)-1-[1,2,2,2-tetradideuterio-1-(2,3,4,5,6-pentadeuteriophenyl)ethyl]pyrrolo[3,2-b]pyridin-3-yl]benzoate], the IC50 (bromodomain) is reported as less than 10000 nM and the IC50 (MV-4-11 cells; MV-4-11, 3d growth) is reported as less than 1 µM.

`[2H]c1c([2H])c([2H])c(C([2H])(n2cc(-c3cnn(CC(F)(F)F)c3)c3ncc(-c4c(C)noc4C)cc32)C([2H])([2H])[2H])c([2H])c1[2H]` (stereo not shown) [P-0606] gave an IC50 (bromodomain) of less than 10000 nM and an IC50 (MV-4-11 cells; MV-4-11, 3d growth) of less than 1 µM.

Molecule `[2H]c1c([2H])c([2H])c(C([2H])(n2cc(-c3ccc(C(=O)O)cc3)c3ncc(-c4c(C)noc4C)cc32)C([2H])([2H])[2H])c([2H])c1[2H]` (stereo not shown) [P-0607, 4-[6-(3,5-dimethylisoxazol-4-yl)-1-[1,2,2,2-tetradeuterio-1-(2,3,4,5,6-pentadeuteriophenyl)ethyl]pyrrolo[3,2-b]pyridin-3-yl]benzoic acid] has an IC50 (bromodomain) of less than 10000 nM and an IC50 (MV-4-11 cells; MV-4-11, 3d growth) of less than 1 µM.

Molecule `Cc1noc(C)c1-c1cnc2c(-c3ccc(C(F)F)cc3)cn(CC3CCC(F)(F)CC3)c2c1` [P-0608, 4-[1-[(4,4-difluorocyclohexyl)methyl]-3-[4-(difluoromethyl)phenyl]pyrrolo[3,2-b]pyridin-6-yl]-3,5-dimethyl-isoxazole] has an IC50 (bromodomain) of less than 10000 nM and an IC50 (MV-4-11 cells; MV-4-11, 3d growth) of less than 1 µM.

With `Cc1ccc(-c2cn([C@@H](C)c3ccccn3)c3cc(-c4c(C)noc4C)cnc23)cc1` [P-0900, 3,5-dimethyl-4-[3-(p-tolyl)-1-[(1S)-1-(2-pyridyl)ethyl]pyrrolo[3,2-b]pyridin-6-yl]isoxazole] the IC50 (BRD4-BD12 (1-477)) was less than 1 µM and the IC50 (MV-4-11 cells; MV-4-11, 3d growth) was less than 1 µM.

With `Cc1ccc(-c2cn(C(c3ccccc3)c3ccccn3)c3cc(-c4c(C)noc4C)cnc23)cc1` (stereo not shown) [P-0901, 3,5-dimethyl-4-[1-[phenyl(2-pyridyl)methyl]-3-(p-tolyl)pyrrolo[3,2-b]pyridin-6-yl]isoxazole] the IC50 (BRD4-BD12 (1-477)) was less than 1 µM and the IC50 (MV-4-11 cells; MV-4-11, 3d growth) was less than 1 µM.

`COC(=O)Cc1ccc(-c2cn(C(c3ccccc3)c3ccccn3)c3cc(-c4c(C)noc4C)cnc23)cc1` (stereo not shown) [P-0902, methyl 2-[4-[6-(3,5-dimethylisoxazol-4-yl)-1-[phenyl(2-pyridyl)methyl]pyrrolo[3,2-b]pyridin-3-yl]phenyl]acetate] was tested, and the IC50 (BRD4-BD12 (1-477)) was less than 1 µM and the IC50 (MV-4-11 cells; MV-4-11, 3d growth) was less than 1 µM.

With `Cc1noc(C)c1-c1cnc2c(-c3ccc(CC(=O)O)cc3)cn(C(c3ccccc3)c3ccccn3)c2c1` (stereo not shown) [P-0903, 2-[4-[6-(3,5-dimethylisoxazol-4-yl)-1-[phenyl(2-pyridyl)methyl]pyrrolo[3,2-b]pyridin-3-yl]phenyl]acetic acid] the IC50 (BRD4-BD12 (1-477)) was less than 1 µM and the IC50 (MV-4-11 cells; MV-4-11, 3d growth) was less than 1 µM.

`COC(=O)c1ccc(-c2cn(CC3CCCCC3)c3cc(-c4c(C)noc4C)cnc23)cc1OC` [P-0904, methyl 4-[1-(cyclohexylmethyl)-6-(3,5-dimethylisoxazol-4-yl)pyrrolo[3,2-b]pyridin-3-yl]-2-methoxy-benzoate] was tested, and the IC50 (BRD4-BD12 (1-477)) was less than 1 µM and the IC50 (MV-4-11 cells; MV-4-11, 3d growth) was less than 1 µM.

Work on `Cc1noc(C)c1-c1cnc2c(-c3ccc(C(C)(C)C#N)cc3)cn(CC3CCC(F)(F)CC3)c2c1` [P-0905, 2-[4-[1-[(4,4-difluorocyclohexyl)methyl]-6-(3,5-dimethylisoxazol-4-yl)pyrrolo[3,2-b]pyridin-3-yl]phenyl]-2-methyl-propanenitrile] yielded an IC50 (BRD4-BD12 (1-477)) of less than 1 µM and an IC50 (MV-4-11 cells; MV-4-11, 3d growth) of less than 1 µM.

In the case of `Cc1noc(C)c1-c1cnc2c(I)cn(C(c3ccccc3)c3ccccn3)c2c1` (stereo not shown) [P-0906, 4-[3-iodo-1-[phenyl(2-pyridyl)methyl]pyrrolo[3,2-b]pyridin-6-yl]-3,5-dimethyl-isoxazole], the IC50 (BRD4-BD12 (1-477)) is reported as less than 1 µM and the IC50 (MV-4-11 cells; MV-4-11, 3d growth) is reported as less than 1 µM.

`Cc1noc(C)c1-c1cnc2c(-c3ccc(C#N)nc3)cn(C(c3ccccc3)c3ccccn3)c2c1` (stereo not shown) [P-0907, 5-[6-(3,5-dimethylisoxazol-4-yl)-1-[phenyl(2-pyridyl)methyl]pyrrolo[3,2-b]pyridin-3-yl]pyridine-2-carbonitrile] showed an IC50 (BRD4-BD12 (1-477)) of less than 1 µM and an IC50 (MV-4-11 cells; MV-4-11, 3d growth) of less than 1 µM.

Work on `[2H]C([2H])([2H])c1noc(C([2H])([2H])[2H])c1-c1cnc2c(-c3ccc(C(=O)O)cc3)cn(CC3CCC(F)(F)CC3)c2c1` [P-0908, 4-[6-[3,5-bis(trideuteriomethyl)isoxazol-4-yl]-1-[(4,4-difluorocyclohexyl)methyl]pyrrolo [3,2-b]pyridin-3-yl]benzoic acid] yielded an IC50 (BRD4-BD12 (1-477)) of less than 1 µM and an IC50 (MV-4-11 cells; MV-4-11, 3d growth) of less than 1 µM.

`COC(=O)c1ccc(-c2cn(Cc3ccccn3)c3cc(-c4c(C)noc4C)cnc23)cc1OC` [P-0954, methyl 4-[6-(3,5-dimethylisoxazol-4-yl)-1-(2-pyridylmethyl)pyrrolo[3,2-b]pyridin-3-yl]-2-methoxy-benzoate] showed an IC50 (BRD4-BD12 (1-477)) of less than 1 µM.
